Laboratory results: patent US5340929A, “Trisazo dye and dye composition containing the same” (Orient Chemical Industries, Ltd., priority 1992, dated 1994)
Where two headings read alike, the source gives them in different places.

Experiments:
[1] = Water resistance of writing (drawdown paper dipped in tap water, reflection density); assay type: physicochemical; conditions: drawndown paper, 3% dye solution, air-dried one day
Method: Light resistance: The resulting dye was dissolved in a 5% aqueous diethylene glycol solution to obtain a 3% dye solution. […] A degree of discoloration was compared with that before testing.
Water resistance: The drawndown paper was air-dried for one day and dipped in tap water.
A: Reflection density is more than 70% of that before testing.
B: Reflection density is 50 to 70% of that before testing.
C: Reflection density is less than 50% that before testing.

[2] = Hue of dye / writing; assay type: physicochemical
[3] = system: strains TA98; assay type: cell-based
Method: Further, the trisazo dye of the present invention is a nontoxic trisazo dye which gives negative results in a back mutation test using an organism, which is generally known as a test method for evaluating toxicity, i.e. AMES test (mutation test).
Evaluation method of Ames test
Regarding various specimen solutions respectively containing a trisazo dyes obtained in Examples 1 to 8 of the present invention and dyes of Comparative Examples 1 to 3, the number of mutant colonies was determined using strains TA98. 2. When the ratio is less than 2, it is "negative" and, when the ratio is more than 2, it is "positive", and the results are shown in Table. 1.

[4] = system: strains TA98; conditions: prior art statement, background; cited from earlier work

SMILES | Writing evaluation: Water resistance [1] | Hue [2] | Ames test: ratio of the number of colonies to control ([3]; TA98, S-9 (+), 20 μg/plate) | Ames test: ratio of the number of colonies to control ([3]; TA98, S-9 (+), 78 μg/plate) | Ames test: ratio of the number of colonies to control ([3]; TA98, S-9 (+), 313 μg/plate) | Ames test: ratio of the number of colonies to control ([3]; TA98, S-9 (+), 1250 μg/plate) | Ames test: ratio of the number of colonies to control ([3]; TA98, S-9 (+), 5000 μg/plate) | Ames test: ratio of the number of colonies to control ([3]; TA98, S-9 (-), 20 μg/plate) | Ames test: ratio of the number of colonies to control ([3]; TA98, S-9 (-), 78 μg/plate) | Ames test: ratio of the number of colonies to control ([3]; TA98, S-9 (-), 313 μg/plate) | Ames test: ratio of the number of colonies to control ([3]; TA98, S-9 (-), 1250 μg/plate) | Ames test: ratio of the number of colonies to control ([3]; TA98, S-9 (-), 5000 μg/plate) | Ames test result [4] | Hue ([2]; listed as Comparative Example 1) | AMES evaluation ([3]; TA98, positive/negative from ratio of colonies to control)
Nc1ccc(N=Nc2ccc(N(c3ccccc3)c3ccc(N=Nc4c(S(=O)(=O)O)cc5cc(S(=O)(=O)O)c(N=Nc6ccccc6)c(O)c5c4N)cc3)cc2)c(O)c1 [Ex. 1] | A (Reflection density is more than 70% of that before testing.) | Reddish | 1.18 | 1.17 | 1.32 | 0.41 | 0.29 | 0.95 | 0.82 | 0.82 | 0.95 | 0.77 | – | – | –
Cc1ccc(N(c2ccc(N=Nc3ccc(O)cc3O)cc2)c2ccc(N=Nc3c(S(=O)(=O)O)cc4cc(S(=O)(=O)O)c(N=Nc5ccccc5)c(O)c4c3N)cc2)cc1 [Ex. 2] | B (Reflection density is 50 to 70% of that before testing.) | Reddish | 1.17 | 1.09 | 1.02 | 0.83 | 0.87 | 1.19 | 1.32 | 1.04 | 1.06 | 1.18 | – | – | –
CCC(C)c1ccc(N=Nc2c(S(=O)(=O)O)cc3cc(S(=O)(=O)O)c(N=Nc4ccc(N(c5ccccc5)c5ccc(N=Nc6ccc(O)cc6O)cc5)cc4)c(N)c3c2O)cc1 (stereo not drawn) [Ex. 3] | A (Reflection density is more than 70% of that before testing.) | Reddish | 1.30 | 1.07 | 1.17 | 1.67 | 0.77 | 0.87 | 0.83 | 0.78 | 0.87 | 0.70 | – | – | –
Nc1ccc(N=Nc2ccc(N(c3ccccc3)c3ccc(N=Nc4c(S(=O)(=O)O)cc5cc(S(=O)(=O)O)c(N=Nc6ccc(S(=O)(=O)O)cc6)c(O)c5c4N)cc3)cc2)c(O)c1 [Ex. 4] | A (Reflection density is more than 70% of that before testing.) | Reddish | 1.23 | 1.22 | 1.21 | 1.51 | 1.17 | 1.06 | 1.02 | 1.05 | 0.99 | 1.02 | – | – | –
CN(c1ccc(N=Nc2ccc(N)cc2O)cc1)c1ccc(N=Nc2c(S(=O)(=O)O)cc3cc(S(=O)(=O)O)c(N=Nc4ccccc4)c(O)c3c2N)cc1 [Ex. 5] | B (Reflection density is 50 to 70% of that before testing.) | Reddish | 1.60 | 1.56 | 1.44 | 1.72 | 1.20 | 1.00 | 0.78 | 0.87 | 1.39 | 1.65 | – | – | –
CCCCN(c1ccc(N=Nc2ccc(N)cc2O)cc1)c1ccc(N=Nc2c(S(=O)(=O)O)cc3cc(S(=O)(=O)O)c(N=Nc4ccc(C(C)CC)cc4)c(O)c3c2N)cc1 (stereo not drawn) [Ex. 6] | A (Reflection density is more than 70% of that before testing.) | Reddish | 1.09 | 1.04 | 1.28 | 1.48 | 1.33 | 0.82 | 1.13 | 1.11 | 1.32 | 1.60 | – | – | –
CCCCCCN(c1ccc(N=Nc2ccc(N)cc2O)cc1)c1ccc(N=Nc2c(S(=O)(=O)O)cc3cc(S(=O)(=O)O)c(N=Nc4ccccc4C)c(O)c3c2N)cc1 [Ex. 7] | A (Reflection density is more than 70% of that before testing.) | Reddish | 1.20 | 1.15 | 0.82 | 0.44 | 0.53 | 1.28 | 1.50 | 1.06 | 1.33 | 0.94 | – | – | –
CCCCCCCCN(c1ccc(N=Nc2ccc(N)cc2O)cc1)c1ccc(N=Nc2c(S(=O)(=O)O)cc3cc(S(=O)(=O)O)c(N=Nc4ccc(S(=O)(=O)O)cc4)c(O)c3c2N)cc1 [Ex. 8] | B (Reflection density is 50 to 70% of that before testing.) | Reddish | 1.25 | 1.22 | 1.16 | 0.88 | 0.91 | 0.98 | 0.94 | 0.91 | 0.93 | 1.02 | – | – | –
Nc1ccc(N=Nc2ccc(Nc3ccc(N=Nc4c(S(=O)(=O)O)cc5cc(S(=O)(=O)O)c(N=Nc6ccccc6)c(O)c5c4N)cc3S(=O)(=O)O)cc2)c(O)c1 [compound 1, C.I. Direct Black 168, reference compound] | C (Reflection density is less than 50% that before testing.) | Reddish | 0.83 | 0.88 | 1.08 | 1.38 | 3.38 | 0.82 | 1.13 | 0.88 | 0.88 | 0.88 | false positive or positive | Reddish black | False positive
